Experimental data reported in patent US4599362A, “2-aryl-ethyl ether derivatives and insecticidal and acaricidal agents containing said derivatives” (priority 1980, dated 1986).
In brackets after ≈: the same amount, converted by molar mass. Like-named read-outs stand apart in the source and are kept apart here.

Legend:
[1] = system: resistant green rice leafhopper (collected at Nakagawara); test: Test 3: Effect on Resistant Green Rice Leafhopper; assay type: in vivo, Nephotettix cincticeps Uhler; conditions: Nephotettix cincticeps, 24 h, read-out: Mortality (%) Green Rice Leafhopper Collected at Nakagawara
Description: (§1) To a mixture of 20 parts of the compound of the present invention and 20 parts of Sorpol SM-200 (registered trademark for the product supplied by Toho Chemical Industrial Co., Ltd.) was added 60 parts of xylol, and the mixture was sufficiently blended. The obtained emulsifiable concentrate was diluted at a predetermined concentration with distilled water, and the obtained dilution was used.
(§2) Seedlings (having 2 to 3 leaves) of paddy rice were hydroponically cultured in a pot having a diameter of 5 cm. A chemical dilution having a concentration of 100 or 20 ppm, prepared in the same manner as described in Test 1, was applied with a sprayer at a rate of 3 ml per pot. The treated seedlings were air-dried and covered with a metal net cylinder, and female adults of resistant green rice leafhopper (collected at Nakagawara) and sensitive green rice leafhopper (collected at Chigasaki) were set, respectively, free in the pot at a density of 10 adults per pot. After of 24 hours, the numbers of killed and living adults were counted and the mortality was calculated. The test was made on three pots and the average value was calculated.

[2] = system: sensitive green rice leafhopper (collected at Chigasaki); test: Test 3: Effect on Sensitive Green Rice Leafhopper; assay type: in vivo; conditions: Nephotettix cincticeps, female adults, 24 hours
Description: as §1, §2

Test 8: Fish Toxicity = assay type: in vivo; conditions: carp, water, carps, concentration at which 1/2 of the test fishes were killed, read-out: Fish Toxicity, TLm48
Description: A water tank having a width of 60 cm, a length of 30 cm and a height of 40 cm was filled with water, and 10 yearling carps having a body length of about 5 cm were set free in the tank and adapted to the environment in the tank. A test compound was applied so that the concentration in water was 10, 1, or 0.1 ppm. After 48 hours, the numbers of killed and living carps were counted and the influences on the fishes were examined.

[3] = Test 9: Toxicity Test (acute oral, mice); conditions: mouse, in vivo, po
Description: In the fish toxicity test, the test compound was dissolved in acetone to form a 1% solution, and a predetermined amount of the solution was used. In the mouse toxicity test, the test compound of the present invention was dissolved or suspended in corn oil, and a predetermined amount of the solution or suspension was used.
A predetermined amount of a solution or suspension of a test compound in corn oil was orally administered to male mice having a body weight of 19 to 23 g (0.2 ml per 10 g of the body weight). After 7 days, the number of killed mice was counted and the influences on the mice were examined.

[4] = system: third-instar larvae of diamond back moth; test: Test 4: Effect on Diamond Back Moth; assay type: in vivo; conditions: Plutella xylostella, 24 hours
Description: as §1
Cabbage leaves were spread in a plastic cup, and 10 third-instar larvae of diamond back moth were set free in the cup.
A chemical dilution having a concentration of 100 or 20 ppm, prepared in the same manner as described in Test 1, was applied from an applicator at a rate of 3 ml per cup.
After scattering of the chemical dilution, the cup was covered, and after 24 hours, the numbers of killed and living larvae were counted and the mortality was calculated. The test was made on three cups and the average value was calculated.

two-spotted spider mite = test: Test 6: Effect on Two-Spotted Spider mite adults; assay type: in vivo; conditions: Tetranychus urticae; 500 ppm; adults; 24 hours; read-out: Mortality (%)
Description: as §1
A kidney bean leaf disc perforated with a cork borer (15 mm in diameter) was placed on water-impreganated absorbent cotton (2 cm×2 cm), and 10 adults of two-spotted spider mite were set free. A chemical dilution having a concentration of 500 ppm was applied with an applicator in an amount of 3 ml.
The leaf disc-placed absorbent cotton was placed in a thermostat chamber maintained at 25° C. After 24 hours, the number of killed adults was counted and the mortality was calculated. The test was made on three leaf discs and the average value was calculated.

German cockroach = test: Test 7: Effect on German Cockroach; assay type: in vivo; conditions: Blattella germanica, male adults, 24 hours, agonized and killed; for mortality at 10 mg/m2: 10 mg/m^2; for mortality at 50 mg/m2: 50 mg/m^2
Description: The bottom face of a high Petri dish having a diameter of 9 cm and a height of 9 cm was treated with 50 or 10 mg/m^2 of a test compound and the dish was air-dried. In order to prevent the adults from escaping from the dish, the inner wall of the dish was treated with butter. Then, 10 male adults of German cockroach were set free in each dish, and the dish was placed in a thermostat chamber maintained at 25° C. After 24 hours, the number of agonized and killed adults was counted. The test was made on two dishes and the average value was calculated.

green peach aphids = test: Test 5: Effect on green peach Aphid; assay type: in vivo; conditions: Myzus persicae, 24 hours, mortality class, read-out: Insecticidal Activity
Description: as §1
Seedlings (having 3 to 4 leaves) of an eggplant grown on a pot were inoculated with green peach aphids and the insects were allowed to grow. The number of the insects was counted. A chemical dilution having a concentration of 100 ppm, prepared in the same manner as described in Test 1, was applied with a spray gun at a rate of 10 ml per pot. Then, the pot was placed in a glass green house. After 24 hours, the number of living insects was counted and the mortality was calculated.
The test was made on three pots, and the average value was calculated. In Table 6, mark "A" indicates a mortality higher than 95%, mark "B" indicates a mortality of 80 to 95%, mark "C" indicates a mortality of 50 to 80%, and mark "D" indicates a mortality lower than 50%.

[5] = system: Second-instar and fifth-instar larvae of tobacco cutworm; test: Test 2: Tobacco Cutworm Larva Dipping Test; assay type: in vivo
Description: as §1
A dilution having a chemical concentration of 100 or 20 ppm was prepared in the same manner as described in Test 1.
Second-instar and fifth-instar larvae of tobacco cutworm were dipped in the dilution for 5 seconds, and the excessive dilution was removed by a filter paper. Then, the larvae were set free in a plastic cup and an artificial diet was supplied thereto. The cup was allowed to stand still in a thermostat chamber maintained at 25° C. After 24 hours, the numbers of the killed and living larvae were counted and the mortality was calculated. The test was made on three cups and the result was expressed by an average value.

[6] = topical, 24 h, read-out: Mortality (%) Fifth-Instar Larvae

Compound	mortality at 20 ppm [1] [%]	mortality at 100 ppm [1] [%]	mortality at 20 ppm [2] [%]	mortality at 100 ppm [2] [%]	LC50 at 48 h (Test 8: Fish Toxicity) [µg/mL]	LD50 at 168 h [3] [mg/kg]	mortality at 20 ppm [4] [%]	mortality at 100 ppm [4] [%]	mortality at 500 ppm (two-spotted spider mite) [%]	mortality at 10 mg/m2 (German cockroach) [%]	mortality at 50 mg/m2 (German cockroach) [%]	mortality at 100 ppm (green peach aphids) [%]	mortality at 20 ppm ([5]; 20 ppm, second-instar larvae, 24 hours, read-out: Mortality (%) Second-Instar Larvae) [%]	mortality at 100 ppm ([5]; 100 ppm, second-instar larvae, 24 hours, read-out: Mortality (%) Second-Instar Larvae) [%]	mortality at 20 ppm [5, 6] [%]	mortality at 100 ppm [5, 6] [%]
COc1ccc(C(C)(C)COCc2ccc(F)c(Oc3ccc(F)cc3)c2)cc1 [Compound 5, 3-(4-Fluorophenoxy)-4-fluorobenzyl 2-(4-methoxyphenyl)-2-methylpropyl ether]	100	100	100	100	> 1	> 500	–	–	–	–	–	–	–	–	–	–
CC(C)(COCc1cc(Oc2ccccc2)ccc1Cl)c1ccc(Cl)cc1 [Compound 7, 3-phenoxy-6-chlorobenzyl 2-(4-chlorophenyl)-2-methylpropyl ether]	–	–	–	–	> 10	> 500	–	–	–	–	–	–	–	–	–	–
CC(C)(COCc1ccc(F)c(Oc2cccc(Cl)c2)c1)c1ccc(Cl)cc1 [Compound 9, 3-(3-Chlorophenoxy)-4-fluorobenzyl 2-(4-chlorophenyl)-2-methylpropyl ether]	–	–	–	–	> 1	> 500	–	–	–	–	–	–	–	–	–	–
CC(C)(COCc1ccc(F)c(Oc2ccccc2)c1)c1ccc(Cl)c(Cl)c1 [Compound 14, 3-Phenoxy-4-fluorobenzyl 2-(3,4-dichlorophenyl)-2-methylpropyl ether]	–	–	–	–	> 1	–	100	100	100	–	–	–	–	–	–	–
COc1ccc(C(C)(C)COCc2ccc(F)c(Oc3ccccc3)c2)cc1 [Compound 16, 3-Phenoxy-4-fluorobenzyl 2-(4-methoxyphenyl)-2-methylpropyl ether]	–	–	–	–	> 0.5	–	80	100	–	90	100	–	–	–	–	–
Cc1cccc(C(C)(C)COCc2ccc(F)c(Oc3ccccc3)c2)c1 [Compound 19, 3-phenoxy-4-fluorobenzyl 2-(3-methylphenyl)-2-methylpropylether]	–	–	–	–	> 1	–	100	100	–	90	100	–	–	–	–	–
CCC(C)(COCc1ccc(F)c(Oc2ccccc2)c1)c1ccc(Cl)cc1 (stereo not shown) [Compound 20, 3-Phenoxy-4-fluorobenzyl 2-(4-chlorophenyl)-2-methylbutyl ether]	100	100	100	100	> 1	> 500	100	100	100	100	100	–	–	–	–	–
CC(C)(COCc1ccc(F)c(Oc2ccc(F)cc2)c1)c1ccc(Cl)c(Cl)c1 [Compound 24, 3-(4-Fluorophenoxy)-4-fluorobenzyl 2-(3,4-dichlorophenyl)-2-methylpropyl ether]	–	–	–	–	> 1	–	90	100	–	–	–	–	–	–	–	–
CC(C)(COCc1cc(Oc2ccccc2)ccc1Br)c1ccc(Cl)cc1 [Compound 26, 3-Phenoxy-6-bromobenzyl 2-(4-chlorophenyl)-2-methylpropyl ether]	–	–	–	–	> 10	> 500	–	–	–	–	–	–	–	–	–	–
Cc1ccc(C(C)(C)COCc2ccc(F)c(Oc3ccccc3)c2)cc1 [Compound 28, 3-phenoxy-4-fluorobenzyl 2-(4-methylphenyl)-2-methylpropyl ether]	100	100	100	100	> 1	–	100	100	–	100	100	> 95	–	–	–	–
Cc1ccc(C(C)(C)COCc2cc(Oc3ccccc3)ccc2Cl)cc1 [Compound 31, 3-Phenoxy-6-chlorobenzyl 2-(4-methylphenyl)-2-methylpropyl ether]	–	–	–	–	> 10	> 500	–	–	–	–	–	–	–	–	–	–
CCOc1ccc(C(C)(C)COCc2ccc(F)c(Oc3ccccc3)c2)cc1 [Compound 36, 3-Phenoxy-4-fluorobenzyl 2-(4-ethoxyphenyl)-2-methylpropyl ether]	100	100	100	100	–	> 500	100	100	–	100	100	> 95	100	100	100	100
CC(C)(COCc1ccc(F)c(Oc2ccccc2)c1)c1ccc(OC2CCCCC2)cc1 [Compound 46, 3-Phenoxy-4-fluorobenzyl 2-(4-cyclohexyloxyphenyl)-2-methylpropyl ether]	100	100	100	100	> 1	–	–	–	100	–	–	–	–	–	–	–
CCCCOc1ccc(C(C)(C)COCc2ccc(F)c(Oc3ccccc3)c2)cc1 [Compound 49]	100	100	100	100	~0.5 (≈ 1.18 µM)	–	–	–	–	100	100	> 95	–	–	–	–
CCOc1ccc(C(C)(C)CSCc2ccc(F)c(Oc3ccccc3)c2)cc1Cl [Compound 51]	–	–	–	–	–	> 500	80	100	90	100	100	> 95	–	–	–	–
CC(C)Sc1ccc(C(C)(C)COCc2ccc(F)c(Oc3ccccc3)c2)cc1 [Compound 54, 3-Phenoxy-4-fluorobenzyl 2-(4-isopropylthiophenyl)-2-methylpropyl ether]	–	–	–	–	–	> 500	100	100	100	100	100	> 95	–	–	–	–
